How the values were obtained:
[1] = target: T1, human muscarinic acetylcholine M3 receptor (Homo sapiens, UniProt P20309); assay: Muscarinic 3 receptor binding assay ([3H]NMS competition, SPA), single concentration 1 μM; settings: 1 μM compound; % inhibition specific [3H]-NMS binding
T1 construct: expressed in transfected cells; host or cells: CHO-K1 (Chinese Hamster Ovary) cell membranes
Outline: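 CHO-K1 membranes expressing human M3 on SPA beads, competition with 0.1 nM [3H]NMS (quarter Kd) in 20 mM HEPES pH 7.4, 5 mM MgCl2, 0.1% BSA, 1% DMSO; compound at 1 μM. 16 h at room temperature. Value is % inhibition of specific binding, non-specific defined with 1 μM atropine.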

[2] = target: T1, human muscarinic acetylcholine M3 receptor; assay: Muscarinic 3 receptor binding assay ([3H]NMS competition, SPA), pIC50; settings: [3H]NMS 0.1 nM, CHO-K1 cell membranes expressing human M3 receptor
Outline: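 SPA beads precoated with human M3-expressing CHO-K1 membranes were incubated 16 h at room temperature with serially diluted compound and 0.1 nM [3H]NMS (pH 7.4 HEPES buffer, MgCl2, BSA, 1% DMSO). Atropine (1 μM) defined non-specific binding; pIC50 is the 50% reduction in specific binding.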

[3] = target: T2, Adrenergic β2 (Homo sapiens, UniProt P07550); assay: Adrenergic β2 mediated cAMP production in H292 cells (AlphaScreen), concentration response; type: cell-based; settings: for EC50: 60 min, 300 μM rolipram, read-out: β2 pEC50 (converted); for β2 Intrinsic Activity: fraction relative to the maximum activity determined for formoterol
T2 construct: Adherent H292 cells are removed from tissue culture flasks by treatment with Accutase™ cell detachment solution; endogenous in cells; host or cells: H292 cells
Outline: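 Intracellular cAMP in lysates read by AlphaScreen, calibrated with cAMP standards; curves fitted for pEC50, with intrinsic activity as a fraction of formoterol's maximum. Agonist exposure 60 min at room temperature after 10 min rolipram (300 μM final), 1% DMSO, HEPES-buffered HBSS pH 7.4.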

[4] = target: T2, Adrenergic β2; assay: Adrenergic β2 mediated cAMP production in H292 cells, single concentration 1 μM; type: cell-based; settings: NCI-H292, 1 μM compound, cAMP as percentage of the maximum response generated by 1E-07M formoterol, read-out: β2 % effect @1 uM
Outline: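 H292 cells pretreated with rolipram (300 μM final) 10 min, then compound at 1 μM final, 1% DMSO, 60 min at room temperature in HBSS/10 mM HEPES pH 7.4/5 mM glucose. Lysate cAMP quantified by AlphaScreen against a standard curve, as % of maximal response to 1E-07M formoterol.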

T2 sequence (P07550 whole entry): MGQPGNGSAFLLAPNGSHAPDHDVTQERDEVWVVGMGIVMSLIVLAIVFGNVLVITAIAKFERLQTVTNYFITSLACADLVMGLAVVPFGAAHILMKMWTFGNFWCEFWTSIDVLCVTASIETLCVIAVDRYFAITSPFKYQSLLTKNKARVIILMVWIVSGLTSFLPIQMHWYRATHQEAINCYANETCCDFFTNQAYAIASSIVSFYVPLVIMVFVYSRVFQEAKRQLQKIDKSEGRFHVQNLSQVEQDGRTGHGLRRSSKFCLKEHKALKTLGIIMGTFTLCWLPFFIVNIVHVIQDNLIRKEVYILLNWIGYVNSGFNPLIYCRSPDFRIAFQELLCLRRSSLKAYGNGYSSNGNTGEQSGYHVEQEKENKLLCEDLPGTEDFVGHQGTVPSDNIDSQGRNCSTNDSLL
T1 sequence (P20309 whole entry): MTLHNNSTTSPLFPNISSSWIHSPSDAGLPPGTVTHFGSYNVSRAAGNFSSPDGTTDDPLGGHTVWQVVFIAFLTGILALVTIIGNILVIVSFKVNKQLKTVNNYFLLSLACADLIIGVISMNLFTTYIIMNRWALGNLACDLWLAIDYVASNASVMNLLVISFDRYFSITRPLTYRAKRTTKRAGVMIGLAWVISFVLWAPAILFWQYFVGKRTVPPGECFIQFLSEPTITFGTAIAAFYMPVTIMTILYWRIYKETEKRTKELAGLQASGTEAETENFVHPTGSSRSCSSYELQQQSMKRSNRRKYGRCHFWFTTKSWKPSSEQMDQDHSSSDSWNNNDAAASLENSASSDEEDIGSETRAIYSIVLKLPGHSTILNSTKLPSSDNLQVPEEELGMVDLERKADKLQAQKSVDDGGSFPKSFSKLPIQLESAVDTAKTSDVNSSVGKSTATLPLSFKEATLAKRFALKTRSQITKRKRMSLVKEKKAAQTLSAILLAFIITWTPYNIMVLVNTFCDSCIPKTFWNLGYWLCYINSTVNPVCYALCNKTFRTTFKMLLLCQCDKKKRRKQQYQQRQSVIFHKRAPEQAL

SMILES	inhibition at 1 µM [1]	IC50 [2]	EC50 [3]	β2 Intrinsic Activity [3]	percent of formoterol maximum response at 1 µM [4]
O=C1COc2c(CCNCCN(C(=O)CCOCCc3cccc(CN4CCC5(CC4)CN(C(=O)Cc4ccc6c(c4)OCO6)CCO5)c3)C3CCCCC3)ccc(O)c2N1 [Example 140, 3-(3-((4-(2-(Benzo[d][1,3]dioxol-5-yl)acetyl)-1-oxa-4,9-diazaspiro[5.5]undecan-9-yl)methyl)phenethoxy)-N-cyclohexyl-N-(2-(2-(5-hydroxy-3-oxo-3,4-dihydro-2H-benzo[b][1,4]oxazin-8-yl)ethylamino)ethyl)propanamide]	100%	1 nM	200 nM	1.0	100%
O=C1COc2c(CCNCCN(C(=O)CCOCCc3cccc(CN4CCC5(CC4)CN(C(=O)c4ccc6c(c4)OCO6)CCO5)c3)C3CCCCC3)ccc(O)c2N1 [Example 157, 3-(3-((4-(Benzo[d][1,3]dioxole-5-carbonyl)-1-oxa-4,9-diazaspiro[5.5]undecan-9-yl)methyl)phenethoxy)-N-cyclohexyl-N-(2-(2-(5-hydroxy-3-oxo-3,4-dihydro-2H-benzo[b][1,4]oxazin-8-yl)ethylamino)ethyl)propanamide]	101%	1.58 nM	63.1 nM	0.8	97%
O=C1COc2c(CCNCCN(C(=O)CCOCCc3cccc(CN4CCC5(CC4)CN(C(=O)c4cccc(Cl)c4)CCO5)c3)C3CCCCC3)ccc(O)c2N1 [Example 164, 3-(3-((4-(3-Chlorobenzoyl)-1-oxa-4,9-diazaspiro[5.5]undecan-9-yl)methyl)phenethoxy)-N-cyclohexyl-N-(2-(2-(5-hydroxy-3-oxo-3,4-dihydro-2H-benzo[b][1,4]oxazin-8-yl)ethylamino)ethyl)propanamide]	99%	2.51 nM	79.4 nM	0.8	96%

Compounds with a lower IC50 [2], results first:

inhibition at 1 µM [1]	IC50 [2]	EC50 [3]	β2 Intrinsic Activity [3]	percent of formoterol maximum response at 1 µM [4]	SMILES
101%	0.316 nM	100 nM	1.0	101%	Cc1ccc(C(=O)N2CCOC3(CCN(Cc4cccc(CCOCCC(=O)N(CCNCCc5ccc(O)c6c5OCC(=O)N6)C5CCCCC5)c4)CC3)C2)s1 [Example 154, N-Cyclohexyl-N-(2-(2-(5-hydroxy-3-oxo-3,4-dihydro-2H-benzo[b][1,4]oxazin-8-yl)ethylamino)ethyl)-3-(3-((4-(5-methylthiophene-2-carbonyl)-1-oxa-4,9-diazaspiro[5.5]undecan-9-yl)methyl)phenethoxy)propanamide]
100%	0.2 nM	126 nM	0.9	92%	Cc1csc(C(=O)N2CCOC3(CCN(Cc4cccc(CCOCCC(=O)N(CCNCCc5ccc(O)c6c5OCC(=O)N6)C5CCCCC5)c4)CC3)C2)c1 [Example 138, N-Cyclohexyl-N-(2-(2-(5-hydroxy-3-oxo-3,4-dihydro-2H-benzo[b][1,4]oxazin-8-yl)ethylamino)ethyl)-3-(3-((4-(4-methythiophene-2-carbonyl)-1-oxa-4,9-diazaspiro[5.5]undecan-9-yl)methyl)phenethoxy)propanamide]
100%	0.158 nM	39.8 nM	1.0	100%	CCc1cc(C(=O)N2CCOC3(CCN(Cc4cccc(CCOCCC(=O)N(CCNCCc5ccc(O)c6c5OCC(=O)N6)C5CCCCC5)c4)CC3)C2)cs1 [Example 144, N-Cyclohexyl-3-(3-((4-(5-ethylthiophene-3-carbonyl)-1-oxa-4,9-diazaspiro[5.5]undecan-9-yl)methyl)phenethoxy)-N-(2-(2-(5-hydroxy-3-oxo-3,4-dihydro-2H-benzo[b][1,4]oxazin-8-yl)ethylamino)ethyl)propanamide]
